The text below walks through data of ChEMBL document CHEMBL1148074, “Thalifaberidine, a cytotoxic aporphine-benzylisoquinoline alkaloid from Thalictrum faberi” (J Nat Prod, 1994).

≈ marks a conversion by molar mass, not a printed value. Calls of active or inactive are those of the source. The calls are words filed in the database; no cut-off is given here.

A short description of data set [1]: Selectivity index, ratio of ED50 for human KB cells to ED50 for chloroquine-resistant Plasmodium falciparum W2. The conditions noted are these: read-out: Selectivity Index. Type of data set: toxicity, cell-based.
In data set [2] the test system is Plasmodium falciparum. In words: Antimalarial activity against chloroquine-sensitive Plasmodium falciparum D6 infected human erythrocytes after 24 hrs by [3H]hypoxanthine uptake. The conditions noted are these: read-out: ED50 (the source's name). Type of data set: functional.
Data set [3] has as its system Plasmodium falciparum. In words: Antimalarial activity against chloroquine-resistant Plasmodium falciparum W2 infected human erythrocytes after 24 hrs by [3H]hypoxanthine uptake. The class given is functional. The conditions noted are these: read-out: ED50 (the source's name).
Data set [4] can be described thus: Selectivity index, ratio of ED50 for human KB cells to ED50 for chloroquine-sensitive Plasmodium falciparum D6. Type of data set: toxicity, cell-based. The conditions noted are these: read-out: Selectivity Index.
In another data set the test system is HT-1080. In words: Cytotoxicity against human HT1080 cells after 3 days by SRB assay. Type of data set: functional. The conditions noted are these: HT-1080, 72 h, read-out: ED50 (the source's name). On the technique in general: In SRB staining, fixed cells bind dye roughly in proportion to their protein.
In a further data set the test system is LNCaP. In words: Cytotoxicity against human LNCAP cells after 3 days by SRB assay. The class given is functional. The conditions noted are these: 72 h, read-out: ED50 (the source's name).
The nature of data set [5]: Cytotoxicity against human KBVIN cells after 3 days by SRB assay. The class given is functional. The conditions noted are these: 72 h, read-out: ED50 (the source's name).
A further data set concerns A-431. The data set can be described thus: Cytotoxicity against human A431 cells after 3 days by SRB assay. The class given is functional. The conditions noted are these: A-431, 72 h, read-out: ED50 (the source's name).
A further data set concerns Lu1. In words: Cytotoxicity against human Lu1 cells after 3 days by SRB assay. The class given is functional. The conditions noted are these: Lu1, 72 h, read-out: ED50 (the source's name).
Data set [6] can be described thus: Cytotoxicity against human BCA1 cells after 3 days by SRB assay. Type of data set: functional. The conditions noted are these: BCA1, 72 h, read-out: ED50 (the source's name).
Data set [7] can be described thus: Cytotoxicity against human U373 cells after 3 days by SRB assay. The class given is functional, U-373MG ATCC. The conditions noted are these: U373 MG, 72 h, read-out: ED50 (the source's name).
A further data set concerns Col2. In words: Cytotoxicity against human Col2 cells after 3 days by SRB assay. The conditions noted are these: Col2, 72 h, read-out: ED50 (the source's name). The class given is functional.
The nature of data set [8]: Cytotoxicity against human KBVIN cells in presence of 1 ug/ml vinblastine after 3 days by SRB assay. Type of data set: functional. The conditions noted are these: 72 h, read-out: ED50 (the source's name).
The test system of a further data set is KB. In words: Cytotoxicity against human KB cells after 3 days by SRB assay. Type of data set: functional. The conditions noted are these: 72 h, read-out: ED50 (the source's name).
Data set [9] concerns the target Human immunodeficiency virus type 1 reverse transcriptase (Human immunodeficiency virus 1) (UniProt Q72547). The data set can be described thus: Inhibition of HIV1 reverse transcriptase.
The test system of a further data set is ZR-75-1. The data set can be described thus: Cytotoxicity against human ZR-75-1 cells after 3 days by SRB assay. The class given is functional. The conditions noted are these: ZR-75-1, 72 h, read-out: ED50 (the source's name).
The next data set has as its system P388. In words: Cytotoxicity against mouse P388 cells after 3 days by SRB assay. Type of data set: functional. The conditions noted are these: P388, 72 h, read-out: ED50 (the source's name).

Consider `C[C@@H]1CC[C@H]2[C@@H](C)C(=O)O[C@@H]3O[C@@]4(C)CC[C@@H]1[C@]32OO4` [ARTEMISININ], for which the selectivity ratio in [1] was over 50000; in data set [4], over 1820. The EC50 in the data set with Plasmodium falciparum [2] came out at 0.0011 µg/mL (≈ 0.0039 µM); in the data set on Plasmodium falciparum [3] it was 0.0004 µg/mL (≈ 0.00142 µM).

Turning to `CCN(CC)CCCC(C)Nc1ccnc2cc(Cl)ccc12` (centres undefined) [CHLOROQUINE], the EC50 in the data set on Plasmodium falciparum [2] stood at 0.0035 µg/mL (≈ 0.0109 µM).

On to `OC(c1cc(C(F)(F)F)nc2c(C(F)(F)F)cccc12)C1CCCCN1` (centres undefined) [MEFLOQUINE], for which the selectivity ratio in data set [1] came to 1840; in [4] it was 393. Besides, the EC50 amounted to 0.0089 µg/mL (≈ 0.0235 µM) with Plasmodium falciparum [2] and 0.0019 µg/mL (≈ 0.00502 µM) with Plasmodium falciparum [3].

For the compound `C=C[C@H]1CN2CC[C@H]1C[C@H]2[C@H](O)c1ccnc2ccc(OC)cc12` [QUININE], the values for the selectivity ratio in data set [1] and in [4] were over 340 and over 960, respectively. The EC50 in the data set with Plasmodium falciparum [2] was found to be 0.0208 µg/mL (≈ 0.0641 µM); in the data set on Plasmodium falciparum [3], 0.0592 µg/mL (≈ 0.182 µM).

Regarding `COc1cc2c(cc1O)CCN(C)[C@H]2Cc1ccc(Oc2c(O)c(OC)cc3c2C[C@H]2c4c(c(OC)c(OC)c(OC)c4-3)CCN2C)cc1` [THALIFABERIDINE], the EC50 in the data set on HT-1080 was determined as 3.1 µg/mL (≈ 4.64 µM); with LNCaP, 3.7 µg/mL (≈ 5.53 µM); in data set [5] it was 7.8 µg/mL (≈ 11.7 µM); in the data set on A-431 it was 6.7 µg/mL (≈ 10 µM); with Lu1 it was 5.4 µg/mL (≈ 8.07 µM); in [6], 3.9 µg/mL (≈ 5.83 µM). The EC50 in data set [7] stood at 1.5 µg/mL (≈ 2.24 µM); with Plasmodium falciparum [2], 0.88 µg/mL (≈ 1.32 µM); with Col2 it was 3.2 µg/mL (≈ 4.78 µM); in data set [8] it was 17.7 µg/mL; in the data set on Plasmodium falciparum [3], 0.122 µg/mL (≈ 0.182 µM); in the data set on KB it was 5.7 µg/mL (≈ 8.52 µM). The results for the EC50 in the data set on ZR-75-1 and in the data set on P388 were 1.5 µg/mL (≈ 2.24 µM) and 0.6 µg/mL (≈ 0.897 µM), respectively. Besides, the selectivity ratio was determined as 47 in data set [1] and 6.5 in data set [4]. Further, in data set [9], the outcome was inactive.

As for `COc1cc2c(cc1OC)[C@H](Cc1ccc(Oc3c4c(cc(OC)c3OC)-c3c(OC)c(OC)c(OC)c5c3[C@H](C4)N(C)CC5)cc1)N(C)CC2` [THALIFABERINE], the EC50 in the data set with HT-1080 was found to be 2.6 µg/mL (≈ 3.73 µM); in the data set with LNCaP, 5.7 µg/mL (≈ 8.18 µM); in data set [5], 1.2 µg/mL (≈ 1.72 µM); in the data set with A-431 it was 4.9 µg/mL (≈ 7.03 µM); with Lu1 it was 16.3 µg/mL (≈ 23.4 µM); in data set [6], 5.4 µg/mL (≈ 7.75 µM). Also, the EC50 came out at 4.1 µg/mL (≈ 5.88 µM) in data set [7]; 5.09 µg/mL (≈ 7.3 µM) in the data set on Plasmodium falciparum [2]; 1.6 µg/mL (≈ 2.3 µM) in the data set with Col2; 4.6 µg/mL in [8]; 0.441 µg/mL (≈ 0.633 µM) with Plasmodium falciparum [3]; 15.5 µg/mL (≈ 22.2 µM) in the data set on KB. Besides, the figures for the EC50 in the data set on ZR-75-1 and with P388 were 3.7 µg/mL (≈ 5.31 µM) and 1.3 µg/mL (≈ 1.87 µM), respectively. The selectivity ratio in [1] amounted to 35; in data set [4] it was 3. Moreover, in [9], the result was inactive.

For `COc1cc2c(c(O)c1OC)CCN(C)[C@H]2Cc1ccc(Oc2c3c(cc(OC)c2OC)-c2c(OC)c(OC)c(O)c4c2[C@H](C3)N(C)CC4)cc1` [THALIFASINE], the EC50 in the data set with HT-1080 came to 1.3 µg/mL (≈ 1.86 µM); in the data set with LNCaP, 3.3 µg/mL (≈ 4.72 µM); in data set [5] it was 1.6 µg/mL (≈ 2.29 µM); with A-431, 8.2 µg/mL (≈ 11.7 µM); with Lu1 it was 2 µg/mL (≈ 2.86 µM); in data set [6], 2.4 µg/mL (≈ 3.43 µM). Also, the EC50 was found to be 2.2 µg/mL (≈ 3.15 µM) in [7]; 0.238 µg/mL (≈ 0.341 µM) with Plasmodium falciparum [2]; 2.1 µg/mL (≈ 3.01 µM) in the data set on Col2; 5.7 µg/mL in data set [8]; 0.0493 µg/mL (≈ 0.0705 µM) in the data set with Plasmodium falciparum [3]; 4.6 µg/mL (≈ 6.58 µM) with KB. The EC50 with ZR-75-1 and in the data set with P388 was 1.2 µg/mL (≈ 1.72 µM) throughout. The selectivity ratio in data set [1] was determined as 93; in [4], 19. In addition, the outcome in [9] was inactive.
